From article PMC7714071, “Interaction of amyloid beta with humanin and acetylcholinesterase is modulated by ATP” (FEBS Open Bio, 2020)

What was measured:
[1] = test system: H1299 cells; assay: MTT cell viability, H1299; assay type: cell-based, human; conditions: 48 h, Fig. 7B; for effect of ATP on viability in HN-ID media: HN-immunodepleted media, versus no ATP; for effect on cell viability: control media, three experiments in triplicate
Protocol: Human NSCLC cell lines, A549 (ATCC CCL‐185) and H1299 (ATCC CRL‐5803), were purchased from the American Type Culture Collection (ATCC, Manassas, VA, USA). Cells were seeded as we reported earlier in 5 mL HyClone Dulbecco's modified Eagle's medium/nutrient mixture F‐12 (DMEM/F12) (GE Healthcare Life Sciences, Pittsburgh, PA, USA), supplemented with 10% Fetalgro bovine growth serum (FBS; RMBIO, Missoula, MT, USA), 50 U·mL^−1 penicillin, and […] streptomycin (Invitrogen, Life Technologies, Carlsbad, CA, USA) in 25‐cm^2 tissue culture flasks, and allowed to grow overnight in an incubator at 37 °C, 95% humidity, and 5% CO2. The cells were counted after trypan blue staining, with a hemocytometer.
The 3‐(4,5‐dimethylthiazol‐2‐yl)‐2,5‐diphenyl‐tetrazolium bromide (MTT) reduction assay (Sigma‐Aldrich), used to measure cell viability, was carried out as we reported earlier. Cells were seeded in 96‐well plates as indicated in 200 μL 10% FBS‐supplemented media per well and maintained overnight at 95% humidity and 5% CO2. After an overnight incubation, the media were replaced with 200 μL serum‐free media, and the cells were further incubated, without or with different treatments, for 24, 48, or 72 h. The final concentration of DMSO in each well never exceeded 0.1%. The cells were then incubated for 4 h with MTT (0.5 mg·mL^−1) in the dark. The media were carefully removed, and DMSO (100 μL) was added to dissolve the formazan crystals. The absorbance was measured at 570 nm in a plate reader. Untreated cells or wells containing only DMSO and media were used as a positive and negative control, respectively. Statistical analysis was conducted using […] PRISM version 8.4.3 for Windows. Significant values were considered at P < 0.05 and more significant values at P < 0.01, compared with the control.
Conditioned media were immunodepleted (ID) according to the methods previously described and our recently published report. Briefly, specific antibodies were bound to ELISA wells overnight (1 : 1000 dilution). The wells were then blocked and washed, then 300 μL of the conditioned medium (0.5 μg·μL^−1) treated as indicated, 72 h postserum starvation, was incubated with the antibodies bound to ELISA wells for 24 h. The ID media were then carefully removed and analyzed for the presence of the target protein or peptide by ELISA. The same amount of protein (3 µL of 600 µg·mL^−1 total protein) of each sample was analyzed in the experiments. Significant depletion (95–100%) was observed upon using each of the antibodies employed in this study.
Since addition of ATP appears to increase binding of HN to Aβ, and conversely, decreases the interaction of Aβ with AChE (Figs 3, 4, 5, 6), we tested the effect of added ATP on A549 and H1299 cell viability (Fig. 7). Exogenously added ATP at either 100 µM or 1 mM had no effect on viability of either A549 (Fig. 7A) or H1299 cells (Fig. 7B). […] To determine the effect of ID of AChE or HN in the absence or presence of added ATP on cell viability, ID media were prepared by first seeding 0.2 × 10^5 cells per well in 96‐well plates in 10% FBS‐supplemented media. The next day, the cells were incubated in serum‐free medium for 72 h, then ID of AChE or HN as described in Materials and methods. For cell viability assays, cells were seeded in 96‐well plates at 0.2 × 10^5 cells per well in 200 µL 10% FBS‐supplemented media followed by incubation in serum‐free medium for 12 h, then treated with the ID media for 48 h. […]

[2] = test system: Aβ cytotoxicity; conditions: cited from earlier work
From the text: Almost all types of cells produce amyloid beta (Aβ), a peptide well recognized for its role in the development and progression of different stages of Alzheimer's disease (AD). The Aβ peptide is ~ 4 kDa and derived from the sequential processing of the higher molecular weight amyloid precursor protein by two membrane‐bound endoproteases, β‐ and γ‐secretase. Different C‐terminal Aβ heterogeneity results from processing by γ‐secretase, where Aβ40 represents the most abundant isoform (~ 90%) as compared to Aβ42 (~ 10%). Self‐assembled Aβ40/42 peptides into amyloid fib ... || Soluble oligomers of proteins implicated in different diseases are primarily thought to be the main toxic form as opposed to the larger fibrillar assemblies. Aβ regions containing Tyr and Ser (H6DSGY10 and G25SNKG29) (Fig. 1) along with post‐translational modifications of these regions, have been implicated in misfolding, oligomerization, or fibril formation of Aβ [5, 10, 11, 16, 41]. […] Aβ proteins a ... || Acetylcholinesterase (AChE) is an enzyme known for its role in terminating acetylcholine‐mediated neurotransmission at the synaptic cleft. The majority of the cortical AChE in the Alzheimer's brain is mainly associated with the amyloid core of senile plaques. […]

[3] = test system: Aβ40; conditions: cited from earlier work
From the text: Almost all types of cells produce amyloid beta (Aβ), a peptide well recognized for its role in the development and progression of different stages of Alzheimer's disease (AD). The Aβ peptide is ~ 4 kDa and derived from the sequential processing of the higher molecular weight amyloid precursor protein by two membrane‐bound endoproteases, β‐ and γ‐secretase. Different C‐terminal Aβ heterogeneity results from processing by γ‐secretase, where Aβ40 represents the most abundant isoform (~ 90%) as compared to Aβ42 (~ 10%). Self‐assembled Aβ40/42 peptides into amyloid fib ... || Humanin (HN) is a secreted 21‐ to 24‐amino acid mitochondrial‐derived peptide. Certain amino acid residues in HN have been identified to be involved in different functions, including binding to Aβ [55, 56]. […] HN was identified previously as a binding partner of Aβ, likely modulating its aggregation pathways and counteracting its deleterious effects. […] The specific epitopes at the binding interface between HN and Aβ40 were identified, by proteolytic epitope excision and extraction in addition to affinity–mass spectrometric data analysis, to be HN (5–15) and Aβ (17–28). […] Inhibiting the 17–28 region of Aβ reduced aggregation of the neurotoxic amyloid fibrils and related cytotoxicity in SH‐SY5Y, a human neuroblastoma cell ... || (+ 1 further places)

Nc1ncnc2c1ncn2[C@@H]1O[C@H](COP(=O)(O)OP(=O)(O)OP(=O)(O)O)[C@@H](O)[C@H]1O [ATP, Adenosine triphosphate]
effect of ATP on viability in AChE-depleted media ([1]; AChE-immunodepleted media): did not affect cell viability | effect of ATP on viability in HN-ID media ([1]; ATP 100 µM): No change in cell viability | effect on cell viability ([1]; ATP 100 µM): no effect | effect of ATP on viability in HN-ID media ([1]; ATP 1 mM): No change in cell viability | effect on cell viability ([1]; ATP 1 mM): no effect | effect on Aβ-mediated cytotoxicity [2]: protective

Humanin [HN]
morphology of Aβ40 [3]: from fibrillary to amorphous
